From paper PMC9962735, “Synthesis and Cytotoxic Activity of the Derivatives of N-(Purin-6-yl)aminopolymethylene Carboxylic Acids and Related Compounds” (Molecules, 2023)

Experiments:
[1] = test system: Jurkat human acute T-lymphoblastic leukemia; assay: MTT cytotoxicity assay, Jurkat; format: cell-based; settings: Homo sapiens, Jurkat; for CC50: 72 h, 72 h incubation, MTT; for viability at 100 µM: 1 × 10^–4 M, mean ± SD (n = 3), read-out: Cell viability
From the text: (§1) The cytotoxicity of the test compounds was studied using the MTT assay against a number of cell lines: CT-26 murine colon carcinoma, 4T1 murine mammary carcinoma, MDA-MB-231 human breast adenocarcinoma, COLO201 human colorectal adenocarcinoma, HepG2 human hepatocellular carcinoma, A549 human non-small-cell lung carcinoma, SK-BR-3 human breast adenocarcinoma, SNU-1 human gastric carcinoma, Jurkat human acute T-lymphoblastic leukemia, and WI-38 human lung fibroblasts (normal cells). Doxorubicin (Dox) was used as a reference drug. Cells were incubated with test compounds for 72 h.
(§2) Cells were seeded in flat-bottomed 96-well plates at 10,000 cells per well (for A549, SNU-1, WI-38, CT-26, MDA-MB-231, 4T1, and HepG2 cells) or 20,000 cells per well (for SK-BR-3, Jurkat, and COLO201 cells) and cultivated in complete culture mediums (for composition of each medium, see the Supplementary Materials, Table S1) in a CO2 incubator at 37 °C. At the first stage of this study, the test compounds dissolved in DMSO were added to the wells with cells at final concentrations from 1 × 10^–4 to 1 × 10^–10 mol/L (A549, SK-BR-3, SNU-1, Jurkat, and WI-38) or 1 × 10^–3 to 1 × 10^–8 mol/L (CT-26, MDA-MB-231, 4T1, COLO201, and HepG2); DMSO concentration in the wells was finally 1%. A complete cultural medium and DMSO were added to the control wells at the same concentration as in the experimental wells; 0.1% Triton X-100 solution (10 µL) was added to the corresponding wells as a non-specific positive control. After adding the test compounds, the cells were incubated for 72 h in an atmosphere containing 5% CO2. After that, the nutrient medium was removed from each well (in the case of SK-BR-3, Jurkat, and COLO201, plates were pre-centrifuged at 1500 rpm for 6 min). A solution of the commercial anticancer agent Doxorubicin (Dox, Sigma-Aldrich, St. Louis, MO, USA) in DMSO was used as a reference drug. Then, 150 µL of a complete medium with the MTT reagent (PanEco, Moscow, Russia) at a concentration of 0.5 mg/mL was added and incubated for 2 h. Formazan crystals were dissolved in DMSO (200 µL) and the absorbance in the wells was measured at 540 nm and a reference wavelength of 650 nm (Sunrise, Tecan, Groding, Austria). Experiments were performed in three parallel runs. Cell viability after incubation in the presence of test compounds was calculated in relation to cell viability in the control wells according to the Formula (1):Cell viability (%) = (Aexp/Ac) × 100,(1) where Aexp is the optical density of solutions in the wells containing test compounds; Ac is the optical density of solutions in control wells without test compounds. For detailed information on cell viability of various cell lines, see the Supplementary Materials, Figures S21–S26.
(§3) At the second stage of this study, in order to more accurately calculate the CC50 (the half maximal inhibitory concentration), the cytotoxic effect of test compounds was evaluated at concentrations close to CC50 found at the first stage. The study of the cytotoxic activity of each substance towards the cells of each line was carried out in triplicate; the mean value was used to calculate CC50. The CC50 values were determined by non-linear regression analysis using Graph-Pad Prism7.

[2] = MTT cytotoxicity assay, Jurkat; format: cell-based, human; settings: human, read-out: SCI (selective cytotoxicity index)
From the text: as §1, §2, §3

[3] = MTT cytotoxicity assay, HepG2; format: cell-based, human; settings: human; CC50 of WI-38 divided by CC50 of HepG2; read-out: SCI (selective cytotoxicity index)
From the text: as §1, §2, §3

[4] = test system: HepG2 human hepatocellular carcinoma; assay: MTT cytotoxicity assay, HepG2; format: cell-based; settings: Homo sapiens; for viability at 100 µM: HepG2, 1 × 10^–4 M, mean ± SD (n = 3), read-out: Cell viability; for CC50: HepG2, 72 h incubation, MTT, n = 3
From the text: as §1, §2, §3

[5] = test system: MDA-MB-231 human breast adenocarcinoma; assay: MTT cytotoxicity assay, MDA-MB-231; format: cell-based; settings: Homo sapiens; for viability at 100 µM: MDA-MB-231, 1 × 10^–4 M, mean ± SD (n = 3), read-out: Cell viability; for CC50: MDA-MB-231, 72 h incubation, MTT, n = 3
From the text: as §1, §2, §3

[6] = test system: CT-26 murine colon carcinoma; assay: MTT cytotoxicity assay, CT-26; format: cell-based; settings: Mus musculus, CT26; for viability at 100 µM: CT-26, 1 × 10^–4 M, mean ± SD (n = 3), read-out: Cell viability; for CC50: CT-26, 72 h incubation, MTT, n = 3
From the text: as §1, §2, §3

[7] = MTT cytotoxicity assay, CT-26; format: cell-based, murine; settings: mouse (CT-26) and human (WI-38); CC50 of WI-38 divided by CC50 of CT-26; read-out: SCI (selective cytotoxicity index)
From the text: as §1, §2, §3

[8] = test system: COLO201 human colorectal adenocarcinoma; assay: MTT cytotoxicity assay, COLO201; format: cell-based; settings: Homo sapiens, COLO 201; for viability at 100 µM: COLO201, 1 × 10^–4 M, mean ± SD (n = 3), read-out: Cell viability; for CC50: COLO201, 72 h incubation, MTT, n = 3
From the text: as §1, §2, §3

[9] = MTT cytotoxicity assay, COLO201; format: cell-based, human; settings: human; CC50 of WI-38 divided by CC50 of COLO201; read-out: SCI (selective cytotoxicity index)
From the text: as §1, §2, §3

[10] = MTT cytotoxicity assay, 4T1; format: cell-based, murine; settings: mouse (4T1) and human (WI-38); CC50 of WI-38 divided by CC50 of 4T1; read-out: SCI (selective cytotoxicity index)
From the text: as §1, §2, §3

[11] = test system: 4T1 murine mammary carcinoma; assay: MTT cytotoxicity assay, 4T1; format: cell-based; settings: Mus musculus; for viability at 100 µM: 4T1, 1 × 10^–4 M, mean ± SD (n = 3), read-out: Cell viability; for CC50: 4T1, 72 h incubation, MTT, n = 3
From the text: as §1, §2, §3

[12] = test system: SK-BR-3 human breast adenocarcinoma; assay: MTT cytotoxicity assay, SK-BR-3; format: cell-based; settings: Homo sapiens; for CC50: SK-BR-3, 72 h, SK-BR-3, 72 h incubation, MTT; for viability at 100 µM: SK-BR-3, 1 × 10^–4 M, mean ± SD (n = 3), read-out: Cell viability
From the text: as §1, §2, §3

[13] = MTT cytotoxicity assay, SK-BR-3; format: cell-based, human; settings: human, read-out: SCI (selective cytotoxicity index)
From the text: as §1, §2, §3

[14] = MTT cytotoxicity assay, SNU-1; format: cell-based, human; settings: human, read-out: SCI (selective cytotoxicity index)
From the text: as §1, §2, §3

[15] = test system: SNU-1 human gastric carcinoma; assay: MTT cytotoxicity assay, SNU-1; format: cell-based; settings: Homo sapiens; for CC50: SNU1, 72 h, SNU-1, 72 h incubation, MTT; for viability at 100 µM: SNU1, SNU-1, 1 × 10^–4 M, mean ± SD (n = 3), read-out: Cell viability
From the text: as §1, §2, §3

[16] = CC50 of WI-38 divided by CC50 of Jurkat (Table 1)
[17] = CC50 of WI-38 divided by CC50 of SK-BR-3 (Table 1)
[18] = CC50 of WI-38 divided by CC50 of SNU-1 (Table 1)

| Compound | CC50 ([1]; n = 3 (Table 1)) [µM] | viability at 100 µM [1] [%] | selectivity ratio at 72 h [2, 16] | selectivity ratio at 72 h [3] | viability at 100 µM [4] [%] | CC50 [4] [µM] | viability at 100 µM [5] [%] | CC50 [5] [µM] | viability at 100 µM [6] [%] | CC50 [6] [µM] | selectivity ratio at 72 h [7] | viability at 100 µM [8] [%] | CC50 [8] [µM] | selectivity ratio at 72 h [9] | selectivity ratio at 72 h [10] | viability at 100 µM [11] [%] | CC50 [11] [µM] | CC50 ([12]; n = 3 (Table 1)) [µM] | viability at 100 µM [12] [%] | selectivity ratio at 72 h [13, 17] | also measured |
| --- | --- | --- | --- | --- | --- | --- | --- | --- | --- | --- | --- | --- | --- | --- | --- | --- | --- | --- | --- | --- | --- |
| CC1COc2c(ccc(F)c2F)N1C(=O)CCCCCCCNc1ncnc2[nH]cnc12 (stereo not shown) [Compound 1c] | 8.5 | 8 ± 2 | 5.9 | 5.9 | 2 ± 1 | 8.5 | 5 ± 5 | 44 | 2 ± 1 | 19 | 2.6 | 2 ± 1 | 0.68 | 73 | 2.2 | 2 ± 2 | 23 | 75 | 8 | 0.67 | selectivity ratio at 72 h [14, 18]: 7.1; CC50 ([15]; n = 3 (Table 1)): 7 µM; viability at 100 µM [15]: 6 ± 2% |
| CC1COc2c(ccc(F)c2F)N1C(=O)CCCCCCCCCCNc1ncnc2[nH]cnc12 (stereo not shown) [Compound 1d] | 8.5 | 10 ± 4 | 2.5 | 2.5 | 2 ± 1 | 8.5 | 4 ± 2 | 44 | 2 ± 1 | 19 | 1.1 | 1 ± 1 | 0.68 | 31 | 0.91 | 2 ± 1 | 23 | 75 | 8 ± 2 | 0.28 | CC50 ([1]; n = 3 (Table 3)): 10 µM; selectivity ratio at 72 h ([2]; CC50 of WI-38 divided by CC50 of Jurkat (Table 3)): 2.1; CC50 ([12]; n = 3 (Table 3)): 28 µM; selectivity ratio at 72 h ([13]; CC50 of WI-38 divided by CC50 of SK-BR-3 (Table 3)): 0.75; selectivity ratio at 72 h [14, 18]: 3; selectivity ratio at 72 h ([14]; CC50 of WI-38 divided by CC50 of SNU-1 (Table 3)): 10; CC50 ([15]; n = 3 (Table 1)): 7 µM; CC50 ([15]; n = 3 (Table 3)): 2 µM; viability at 100 µM [15]: 5 ± 1% |
